According to patent publication US20060019312A1, “CIS-interactions between MHC molecules and co-expressed proteins, related neurological and non-neurological disorders and related therapeutic/diagnostic utilities” (priority 2004, published 2006):

System: GluR1 / MHC class I (b2m)
Test: Co-immunoprecipitation of GluR1 with anti-b2m antibodies from brain slices, Western blot with anti-GluR1
Format: cell-based, mouse
Settings: NMDA 40 micromolar in ACSF, 3 minutes, 30 min wash
Method: FIG. 6 is a representation of a Western blot which illustrates that the NMDA-dependent Glutamate receptor co-immunoprecipitates with an MHC Class I molecule; 400-micron-thick slices of adult mouse brain (wild type or b2m-/-TAP-/- [MHC class I-deficient]) were cut and allowed to recover in oxygenated (95% O2, 5% CO2) artifical cerebro-spinal fluid (ACSF) for 1 hour at room temperature; a subset of slices were then transferred to a recording chamber and allowed to recover for 40 min in flowing oxygenated ACSF (2 ml/minute); these slices were treated with NMDA (40 micromolar in ACSF, 3 minutes) and then washed for 30 min in oxygenated ACSF; at this time, all slices (treated and untreated) were homogenized as below and processed for immunoprecipitation with antibodies against b2m, IgG, or GluR1, and the resulting precipitates were probed in Western blots with antibodies against GluR1.
Hippocampal slice (400 um) samples were prepared by homogenizing tissue in NP40 Lysis buffer (50 mM Tris, 150 mM NaCl, 1 mM EDTA, 1% NP40, pH 7.6) with protease inhibitors (1 ug/mL aprotinin, 1 ug/mL leupeptin, 1 ug/mL pepstatin, 1 mM Na orthovanadate, 1 mM PMSF, phosphatase inhibitor cocktail sigma, 1:100). After letting the tissue sit on ice for 15 min., samples were centrifuged at 13,000 rpm, 4°, for 10 min. […]

## CN[C@H](CC(=O)O)C(=O)O [NMDA]
MHC-deficient (b2m-/- TAP-/-; KO) adult mouse brain slices
  co-immunoprecipitation of GluR1 with anti-b2m antibodies: fails to induce coimmunoprecipitation of GluR1
WT adult mouse brain slices
  co-immunoprecipitation of GluR1 with antibodies against the light chain of MHC class I (b2m): co-precipitates GluR1 only after NMDA treatment
